In data set [1] the target is T1, hCA IX (Homo sapiens, UniProt Q16790).
T1 construct: made in house
Nature of the data set: Stopped-flow CO2 hydration carbonic anhydrase assay, hCA IX. It counts as biochemical.

Data set [2] addresses T2, hCA XII (Homo sapiens, UniProt O43570).
T2 construct: made in house
Nature of the data set: Stopped-flow CO2 hydration carbonic anhydrase assay, hCA XII. It counts as biochemical. The settings on record: for hCA XII/hCA IX (selectivity ratio of Ki): times more selective towards hCA XII than hCA IX.

Data set [3] can be described thus: Cytotoxicity assay (MTT), HGF. Conditions: human, normal gingival fibroblasts (HGF).
The nature of data set [4]: Cytotoxicity assay (MTT), HPC. Conditions: human, normal pulp cells (HPC).
The nature of data set [5]: Cytotoxicity assay (MTT), HPLF. Conditions: human, normal periodontal ligament fibroblasts (HPLF).
Data set [6] relates to HSC-2 human oral squamous cell carcinoma cell line (tongue). Nature of the data set: Cytotoxicity assay (MTT), HSC-2. Conditions: for CC50: Homo sapiens, HSC-2, 48 h, read-out: CC50 HSC-2; for SI (HSC-2): average CC50 of nonmalignant cells / CC50 towards HSC-2.
The test system of data set [7] is HSC-3 human oral squamous cell carcinoma cell line (tongue). Nature of the data set: Cytotoxicity assay (MTT), HSC-3. The settings on record: for CC50: Homo sapiens, HSC-3, 48 h, read-out: CC50 HSC-3; for SI (HSC-3): average CC50 of nonmalignant cells / CC50 towards HSC-3.
In data set [8] the test system is HSC-4 human oral squamous cell carcinoma cell line (tongue). Nature of the data set: Cytotoxicity assay (MTT), HSC-4. Conditions: for CC50: Homo sapiens, HSC-4, 48 h, read-out: CC50 HSC-4; for SI (HSC-4): average CC50 of nonmalignant cells / CC50 towards HSC-4.
In data set [9] the test system is Ca9–22 human oral squamous cell carcinoma cell line (gingiva). Nature of the data set: Cytotoxicity assay (MTT), Ca9-22. Conditions: for TS (C/A): CC50 HGF / CC50 Ca9–22 (same tissue origin, gingiva); for CC50: Homo sapiens, Ca9-22, 48 h, read-out: CC50 Ca9–22 (A); for SI (Ca9–22): average CC50 of nonmalignant cells / CC50 towards Ca9–22.
Data set [10] in a line: Cytotoxicity assay (MTT), normal oral cells (mean). Conditions: human, normal oral cells HGF, HPLF, HPC (mean of the three).
The test system of data set [11] is Human oral squamous cell carcinoma cell lines (Ca9–22, HSC-2, HSC-3, HSC-4). Nature of the data set: Cytotoxicity assay (MTT), all four OSCC lines (mean, selectivity). Conditions: for CC50: Homo sapiens, read-out: CC50 Mean (B), human oral squamous cell carcinoma cell lines; for TS (D/B): mean CC50 against normal cells / mean CC50 against cancer cells; for Mean SI: mean SI over four OSCC cell lines.

[12] abbreviates: stopped-flow CO2 hydration, 15 min preincubation, pH 7.5.

T2 sequence (O43570 25-354): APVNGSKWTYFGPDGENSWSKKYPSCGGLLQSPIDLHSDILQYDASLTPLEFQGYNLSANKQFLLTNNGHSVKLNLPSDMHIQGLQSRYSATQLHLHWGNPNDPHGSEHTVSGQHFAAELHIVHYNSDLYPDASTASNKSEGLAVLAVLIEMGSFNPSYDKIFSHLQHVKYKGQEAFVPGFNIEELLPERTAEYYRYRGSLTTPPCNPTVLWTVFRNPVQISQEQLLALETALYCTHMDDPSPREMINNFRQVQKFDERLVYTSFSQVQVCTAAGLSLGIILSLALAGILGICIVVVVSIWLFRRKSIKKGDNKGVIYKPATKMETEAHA

What is called CC50 is the concentration that lowers cell viability or growth by half. For `NS(=O)(=O)c1ccc(N2N=C(c3ccc(O)cc3)CC2c2cccs2)cc1` (centres unmarked) [Compound 9, 4-[3-(4-Hydroxyphenyl)-5-(thiophen-2-yl)-4,5-dihydro-pyrazol-1-yl]benzenesulfonamide], the “times more potent than compound 1 towards hCA IX” value in [1] (ratio of Ki versus compound 1) amounted to 17.3. For the same molecule, in [2] (ratio of Ki versus compound 1), the “times more potent than compound 1 towards hCA XII” value came out at 11.1. For the same molecule, in [2], the “hCA XII/hCA IX (selectivity ratio of Ki)” value turned out to be 8.6. The same molecule came in with a CC50 at 48 h in [3] of 166 µM. Besides, it took 173 µM to reach half-maximal cytotoxicity in data set [4] (CC50 at 48 h). Moreover, in [5], half-maximal cytotoxicity (CC50 at 48 h) was put at 26.7 µM. In [6], the CC50 is 67 µM and the “SI (HSC-2)” value stood at 1.8. Further, in data set [7], the CC50 worked out at 87.3 µM and the “SI (HSC-3)” value came out at 1.4. Further, in data set [8], the CC50 was 93.7 µM and the “SI (HSC-4)” value is 1.3. For the same molecule, in data set [9], the “TS (C/A)” value is on record as 1.7, the CC50 came out at 99.3 µM and the “SI (Ca9–22)” value worked out at 1.2. The CC50 at 48 h in data set [10] was 122 µM. Also, in [11], the CC50 is 86.8 µM, the “TS (D/B)” value was 1.4 and the “Mean SI” value is 1.4.

As usually defined, the Ki is the equilibrium dissociation constant of an inhibitor or competing ligand from its target. For `NS(=O)(=O)c1ccc(N2N=C(c3ccc(O)cc3)CC2c2ccc(Cl)cc2)cc1` (centres unmarked) [Compound 4, 4-[5-(4-Chlorophenyl)-3-(4-hydroxyphenyl)-4,5-dihydro-pyrazol-1-yl]benzenesulfonamide], the figures for the Ki in [1] (setting [12]) and in data set [2] (setting [12]) were 0.0977 µM and 0.0388 µM, respectively. The “hCA XII/hCA IX (selectivity ratio of Ki)” value in data set [2] worked out at 2.5. Also, the CC50 at 48 h in data set [3] came out at 89 µM; in [4], 144 µM; in data set [5], 29.3 µM; in data set [10], 87.6 µM. Further, the CC50 came out at 81.7 µM in [6]; 57 µM in data set [7]; 61 µM in data set [8]; 39.7 µM in [9]; 59.8 µM in data set [11]. In addition, in data set [6], the “SI (HSC-2)” value turned out to be 1.1. The “SI (HSC-3)” value in data set [7] is reported as 1.5. Also, the “SI (HSC-4)” value in data set [8] stood at 1.4. Further, the “TS (C/A)” value in data set [9] is listed as 2.2. Further, in [9], the “SI (Ca9–22)” value amounted to 2.2. Further, the “TS (D/B)” value in data set [11] was determined as 1.5. For the same molecule, the “Mean SI” value in data set [11] is listed as 1.6.

For the origin of these results see PMC6009964, “Designing, synthesis and bioactivities of 4-[3-(4-hydroxyphenyl)-5-aryl-4,5-dihydro-pyrazol-1-yl]benzenesulfonamides” (Journal of Enzyme Inhibition and Medicinal Chemistry, 2016).
